According to patent publication US20230172940A1, “METHODS OF EXTENDING LIFESPAN BY ADMINISTERING FERROPTOSIS INHIBITORS” (COLLABORATIVE MEDICINAL DEVELOPMENT, LLC, priority 2020, published 2023):

tested on: C. elegans strain TJ1060; assay: Lifespan determination; type: in vivo, Caenorhabditis elegans; settings: alternative ferroptosis inhibitor
Protocol: Lifespan was measured using established protocols. SIH was dissolved in neat dimethyl sulfoxide (DMSO; Sigma-Aldrich) then added to the molten NGM at 55° C. (to a final concentration of 250 μM SIH in 0.5% v/v DMSO). Lip-1 was dissolved in neat DMSO then added to the molten NGM at 55° C. (to a final concentration of 200 μM Lip-1 in 0.5% v/v DMSO). Media containing equivalent vehicle alone (0.5% v/v DMSO) was used for comparison. Standard overnight culture of the Escherichia coli (E. coli) strain OP50 was used as the food source.
Lifespan data was collected at 25 (±1) ° C. using the temperature sensitive-sterile strain TJ1060 [spe-9(hc88); fer-15(b26)]. A synchronous population was obtained by transferring egg-laying adults to fresh plates at 16° C. for 2-3 hours. The adults were removed and the plates with eggs then transferred to 25° C. to ensure sterility. After 48 hours at 25° C., when worms were at the late L4/young adult stage, 25-35 nematodes were transferred to fresh plates containing either vehicle control, 250 μM SIH, or 200 μM Lip-1. All plates were coded to allowing blinding of the experimenter to the treatment regime during scoring. Nematodes were scored for survival at one to three-day intervals and transferred to freshly prepared plates as needed (2-5 days).
It is well documented that differences are observed between independent measures of lifespan, with micro-environmental factors such as minor temperature fluctuations potentially resulting differences in median and maximum lifespan between replicates. After determining the optimal doses of 250 μM SIH and 200 μM Lip-1, respectively, cohorts of nematodes were compared in 8 independent replicates. As the number of worms measured is known to influence the likelihood of accurately observing differences in lifespan, the starting populations for all treatments within experiments were in excess of 70 individuals.

| SMILES | median lifespan extension |
| --- | --- |
| CCOC(=O)c1ccc(NC2CCCCC2)c(N)c1 [ferrostatin] | significant but more modest median lifespan extension |

tested on: RSL3; assay: IC50 (RSL3), Table 1; type: cell-based; settings: not given

| IC50 [nM] | SMILES |
| --- | --- |
| > 3000 | CCC/C=C/c1nc(NC2CCOC2)c2c(n1)OCC(=O)N2 (stereo not drawn) [Compound B-603, 4-[(oxolan-3-yl)amino]-2-[(1E)-pent-1-en-1-yl]-5H,6H,7H-pyrimido[4,5-b][1,4]oxazin-6-one] |
| 6 | Cc1ccc(-c2nc3c(c(NC4CCCC4)n2)NCCC3)cc1 [Compound A-32, N-cyclopentyl-2-(p-tolyl)-5,6,7,8-tetrahydropyrido[3,2-d]pyrimidin-4-amine] |
| 8 | CCCCC(=O)c1cc2c(c(NC3CCCC3)n1)NCCC2 [Compound B-647, 1-[8-(cyclopentylamino)-1,2,3,4-tetrahydro-1,7-naphthyridin-6-yl]pentan-1-one] |
| > 3000 | CCCCC(=O)c1cc2c(c(-n3ccnc3)c1)NCCC2 [Compound B-006, 1-(8-imidazol-1-yl-1,2,3,4-tetrahydroquinolin-6-yl)pentan-1-one] |
| 8 | CCC(C)Nc1ccc(-c2ccc(OC)cc2)nc1NC1CCCC1 (stereo not drawn) [Compound H-86, N^2-cyclopentyl-6-(4-methoxyphenyl)-N^3-sec-butyl-pyridine-2,3-diamine] |
| > 625 | c1ncc(-c2ncc(NC3COC3)c(NC3CCCC3)n2)cn1 [Compound F-82, N^4-cyclopentyl-N^5-(oxetan-3-yl)-2-pyrimidin-5-yl-pyrimidine-4,5-diamine] |
| 5 | CC(C)(C)Nc1ccc(-c2ccncc2)nc1NC1CCCC1 [Compound L-04, N^3-tert-butyl-N^2-cyclopentyl-6-(4-pyridyl)pyridine-2,3-diamine] |
| > 3000 | CCOC(=O)c1cc2c(c(C(=O)C(F)(F)F)c1)NC(C)(C)C=C2 [Compound B-101, Ethyl 2,2-dimethyl-8-(2,2,2-trifluoroacetyl)-1,2-dihydroquinoline-6-carboxylate] |
| > 3000 | CCCCC(=O)c1cc(F)c2c(c1)CCCN2 [Compound B-132] |
| 5 | Cc1ccc(-c2ccc(NC3COC3)c(NC3CCCC3)n2)cc1 [Compound H-81, N^2-cyclopentyl-N^3-(oxetan-3-yl)-6-(p-tolyl)pyridine-2,3-diamine] |
| 3 | CC1(Nc2nc(-c3ccc(F)cc3)ccc2NC2CCC2)CCOC1 (stereo not drawn) [Compound P-54, N^3-cyclobutyl-6-(4-fluorophenyl)-N^2-(3-methyltetrahydrofuran-3-yl)pyridine-2,3-diamine] |
| 7 | CCC(C)Nc1ccc(-c2cncnc2)nc1NC1CCCC1 (stereo not drawn) [Compound H-80, N^2-cyclopentyl-6-pyrimidin-5-yl-N^3-sec-butyl-pyridine-2,3-diamine] |
| 7 | Cc1ccc(-c2ccc(NC(C)(C)C)c(NC3CCCC3)n2)cc1 [Compound A-98, N^3-tert-butyl-N^2-cyclopentyl-6-(p-tolyl)pyridine-2,3-diamine] |
| 40 | CCC/C=C/c1nc2c(c(NC3CCCC3)n1)NCCC2 [Compound B-388, N-cyclopentyl-2-[(E)-pent-1-enyl]-5,6,7,8-tetrahydropyrido [3,2-d]pyrimidin-4-amine] |
| > 3000 | CON(C)C(=O)c1ccc2c(c1)C=CC(C)(C)N2 [Compound B-065] |
| > 3000 | CCCCC(=O)c1cc2c3c(c1)nc(C(F)(F)F)n3CCC2 [Compound B-099, 1-[2-(trifluoromethyl)-1,3-diazatricyclo[6.3.1.04,12]dodeca-2,4(12),5,7-tetraen-6-yl]pentan-1-one] |
| 3 | CCCCCc1nc(NC2CCCC2)c2c(n1)SCCN2 [Compound B-601, N-cyclopentyl-2-pentyl-5H,6H,7H-pyrimido[4,5-b][1,4]thiazin-4-amine] |
| 3 | COc1ccc(-c2ccc(NC3COC3)c(NC3CCCC3)n2)cc1 [Compound H-87, N^2-cyclopentyl-6-(4-methoxyphenyl)-N^3-(oxetan-3-yl)pyridine-2,3-diamine] |

| IC50 [nM] | SMILES |
| --- | --- |
| 5 | CCC(C)Nc1ccc(-c2cccnc2)nc1NC1CCCC1 (stereo not drawn) [Compound H-74, N^2-cyclopentyl-6-(3-pyridyl)-N^3-sec-butyl-pyridine-2,3-diamine] |
| > 3000 | CC1=Nc2cc(C#N)ccc2NC1(C)C [Compound Q-912, 2,2,3-trimethyl-1H-quinoxaline-6-carbonitrile] |
| > 3000 | CCCCC(=O)c1cc2c(c(-c3ccncc3)c1)NCCC2 [Compound Q-950, 1-[8-(4-pyridyI)-1,2,3,4-tetrahydroquinolin-6-yl]pentan-1-one] |
| 6 | CCC(C)Nc1ccc(-c2ccncc2)nc1NC1CCCC1 (stereo not drawn) [Compound H-76, N^2-cyclopentyl-6-(4-pyridyl)-N^3-sec-butyl-pyridine-2,3-diamine] |
| > 3000 | CCCCCc1nc2c(c(NC3CCCC3)n1)NC(C)(C)CC2 [Compound B-917, N-cyclopentyl-6,6-dimethyl-2-pentyl-5H,6H,7H,8H-pyrido[3,2-d]pyrimidin-4-amine] |
| 6 | CCCCCc1ccc(NC(C)CC)c(NC2CCCC2)n1 (stereo not drawn) [Compound H-72, N^2-cyclopentyl-6-pentyl-N^3-sec-butyl-pyridine-2,3-diamine] |
| > 3000 | CCCCC(=O)c1cc2c(c(NC3CCCC3)c1)OCCC2 [Compound B-035, 1-[8-(cyclopentylamino)-3,4-dihydro-2H-1-benzopyran-6-yl]pentan-1-one] |
| 1 | CCC(C)Nc1ccc(-c2ccncc2)nc1NC(C)(C)C (stereo not drawn) [Compound P-22] |
| 7 | CCC(C)Nc1ccc(-c2ccc(C)cc2)nc1NC1CCCC1 (stereo not drawn) [Compound H-61, N^2-cyclopentyl-6-(p-tolyl)-N^3-sec-butyl-pyridine-2,3-diamine] |
| 40 | CCCCC(O)c1cc2c(c(NC(C)(C)C)n1)NCC(C(F)(F)F)C2 (stereo not drawn) [Compound R-812, 1-[8-(tert-butylamino)-3-(trifluoromethyl)-1,2,3,4-tetrahydro-1,7-naphthyridin-6-yl]pentan-1-ol] |
| > 625 | CC(C)=Cc1nc(C)nc(NC2CCCC2)c1N [Compound F-99, N^4-cyclopentyl-2-methyl-6-(2-methylprop-1-enyl)pyrimidine-4,5-diamine] |
| > 1000 | CCOC(=O)c1cc(N)c2c(c1)OCCN2 [Compound H-85] |
| ≥ 3000 | CCC/C=C/c1nc(NC2CCCC2)c2c(n1)SCC(=O)N2 [Compound B-600, 4-(cyclopentylamino)-2-[(1E)-pent-1-en-1-yl]-5H,6H,7H-pyrimido[4,5-b][1,4]thiazin-6-one] |
| > 3000 | CCCCC(=O)c1cc2c(c(N(S(=O)(=O)CC(C)C)S(=O)(=O)CC(C)C)c1)NCCC2 [Compound B-248, N-isobutylsulfonyl-2-methyl-N-(6-pentanoyl-1,2,3,4-tetrahydroquinolin-8-yl)propane-1-sulfonamide] |
| 5 | CCC(C)Nc1ccc(-c2ccc(C)cc2)nc1NC(C)(C)C [Compound L-02, N^2-tert-butyl-6-(p-tolyl)-N^3-sec-butyl-pyridine-2,3-diamine] |
| 70 | CCCCC(OC)c1cc2c(c(Nc3ccccn3)c1)NCCC2 (stereo not drawn) [Compound B-397, 6-(1-methoxypentyI)-N-(2-pyridyl)-1,2,3,4-tetrahydroquinolin-8-amine] |
| ≥ 3000 | CCCCCc1nc(NC2CCCC2)c2c(n1)S(=O)(=O)CCN2 [Compound B-602, N-cyclopentyl-8,8-dioxo-2-pentyl-6,7-dihydro-5H-pyrimido[4,5-b][1,4]thiazin-4-amine] |
| 1 | CC1(Nc2nc(-c3ccc(F)cc3)ccc2NC2CCOCC2)CCOC1 (stereo not drawn) [Compound N-53, 6-(4-fluorophenyl)-N^2-(3-methyltetrahydrofuran-3-yl)-N^3-tetrahydropyran-4-yl-pyridine-2,3-diamine] |

| SMILES | IC50 [nM] |
| --- | --- |
| CCCCC(=O)c1cc2c(c(OC3CCCC3)c1)NCCC2 [Compound Q-980, 1-[8-(cyclopentoxy)-1,2,3,4-tetrahydroquinolin-6-yl]pentan-1-one] | > 3000 |
| CCCCCc1nc(NC2CCCC2)c2c(n1)OCCN2 [Compound B-711, N-cyclopentyl-2-pentyl-5H,6H,7H-pyrimido[4,5-b][1,4]oxazin-4-amine] | 41 |

same assay, conditions: unit cell prints uM

| IC50 [nM] | SMILES |
| --- | --- |
| > 10000 | CCCCC(=O)c1nc2c(c(Nc3ccccn3)n1)NCCC2 [Compound G-65, 1-[4-(2-pyridylamino)-5,6,7,8-tetrahydropyrido[3,2-d]pyrimidin-2-yl]pentan-1-one] |
| > 10000 | CCCCC(O)c1nc2c(c(Nc3ccccn3)n1)NCCC2 (stereo not drawn) [Compound G-63, 1-[4-(2-pyridylamino)-5,6,7,8-tetrahydropyrido[3,2-d]pyrimidin-2-yl]pentan-1-ol] |
| > 10000 | CNC(=O)c1nc(-c2ccc(C)cc2)nc2c1NC(C)(C)N2C1CCCC1 [Compound K-34, 9-cyclopentyl-N,8,8-trimethyl-2-(p-tolyI)-5,7-dihydro-4H-purine-6-carboxamide] |
